Measurements from patent US10874610B2, “Extracellular vesicle-based diagnostics and engineered exosomes for targeted therapeutics against cancer” (Northwestern University, priority 2016, dated 2020).

System: BCSCs
Experiment: Cellular internalization pathway of bioengineered exosomes using endocytic pathway inhibitors
Assay type: cell-based
Conditions: BCSCs pretreated with inhibitor, then PKH67 labeled exosomes; microscopy and flow cytometry
Method: The mode of cellular internalization of the bioengineered exosomes was examined by using different endocytic pathway inhibitors. BCSCs were pretreated with different inhibitors including sucrose (inhibitor of clathrin-mediated endocytosis), amiloride (inhibitor of macropinocytosis), and filipin (inhibitor of caveolar uptake pathway), followed by the incubation with PKH67 labeled exosomes.

Row | SMILES | effect of inhibitor on cellular internalization of exosomes
1 | N=C(N)NC(=O)c1nc(Cl)c(N)nc1N [amiloride] | inhibited
2 | OC[C@H]1O[C@@](CO)(O[C@H]2O[C@H](CO)[C@@H](O)[C@H](O)[C@H]2O)[C@@H](O)[C@@H]1O [sucrose] | inhibited
